Results reported in patent US8580918B2, “Peptidic GLP-2 agonists” (Ferring B.V., priority 2009, dated 2013).
Read-outs that look alike come from different tables or passages of the source. Where no end group is shown, it is not given here.

Tests used:
[1] = in humans; cited from earlier work
[2] = Pharmacokinetics in rats after intravenous bolus injection (systemic clearance); type: in vivo; settings: rat, adult male Sprague-Dawley rats, i.v. bolus, read-out: CL (ml/kg/min) Average
How it was run: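 Adult male Sprague-Dawley rats (3-4, doubly cannulated) given IV jugular bolus at 0.1-1.0 mg/kg; serial carotid blood to K2EDTA plasma, LC/MS/MS quantitation. CL = dose/kg divided by AUC∞ (noncompartmental, trapezoid); mean ± SD.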

For `CC[C@H](C)[C@H](NC(=O)[C@H](Cc1ccccc1)NC(=O)[C@H](CC(=O)O)NC(=O)[C@H](CCCN=C(N)N)NC(=O)[C@H](C)NC(=O)[C@H](C)NC(=O)[C@H](CC(C)C)NC(=O)[C@H](CC(N)=O)NC(=O)[C@H](CC(=O)O)NC(=O)[C@H](CC(C)C)NC(=O)[C@@H](NC(=O)[C@@H](NC(=O)[C@H](CC(N)=O)NC(=O)[C@H](CCSC)NC(=O)[C@H](CCC(=O)O)NC(=O)[C@H](CC(=O)O)NC(=O)[C@H](CO)NC(=O)[C@H](Cc1ccccc1)NC(=O)[C@H](CO)NC(=O)CNC(=O)[C@H](CC(=O)O)NC(=O)[C@H](C)NC(=O)[C@@H](N)Cc1cnc[nH]1)[C@@H](C)O)[C@@H](C)CC)C(=O)N[C@@H](CC(N)=O)C(=O)N[C@@H](Cc1c[nH]c2ccccc12)C(=O)N[C@@H](CC(C)C)C(=O)N[C@H](C(=O)N[C@@H](CCC(N)=O)C(=O)N[C@H](C(=O)N[C@@H](CCCCN)C(=O)N[C@H](C(=O)N[C@H](C(=O)N[C@@H](CC(=O)O)C(=O)O)[C@@H](C)O)[C@@H](C)CC)[C@@H](C)O)[C@@H](C)CC` [hGLP-2, reference compound], the “half-life (t1/2)” value [1] is given as 10 min and the clearance ([2]; plasma, dose 1.0 mg FB/kg) is given as 24.6 mL/kg/min.

With “HGEGSFSSELSTILDALAARDFIAWLIATKITDKKKKKK-NH2 (C-terminus assumed) [ZP-1846, reference compound]” the clearance ([2]; in vivo, dose 0.20 mg FB/kg) was 2.8 mL/kg/min.

“HGEGTFSSELATILDALAARDFIAWLIATKITDKKKKKK-NH2 [ZP-1848, reference compound]” gave a clearance ([2]; plasma, 0.2 mg FB/kg, dose 0.20 mg FB/kg) of 2.4 mL/kg/min.
